{"source": "patent US11607623B2", "about": "“Dynamic interface system and its application in supercritical fluid extraction and chromatography” (CORNERSTONE TECHNOLOGIES LLC, priority 2019, dated 2023)", "origin": "cited, not measured here"}
{"smiles": "CCCCCc1cc(O)c2c(c1)OC(C)(C)c1ccc(C)cc1-2", "note": "[CBN, cannabinol]", "values": [{"measurement": "molar solubility in SC-CO2, course across temperature", "setting": "220-240 bar, across the 42-72° C. temperature ranges", "value": "inverted-U curve"}, {"measurement": "solubility in SC-CO2 at 54° C. relative to 41° C. or 61° C.", "setting": "lower pressures 160-180 bar", "value": "two-fold greater"}]}
{"smiles": "CCCCCc1cc(O)c2c(c1)OC(C)(C)[C@@H]1CCC(C)=C[C@@H]21", "note": "[THC, delta-9-tetrahydrocannabinol]", "values": [{"measurement": "solubility in SC-CO2, change with temperature", "setting": "pressures of 220-240 bar, temperature raised from 42° C. to 72° C.", "value": "two-fold increase"}]}
